Source: US20150133411A1, “COMPOUNDS WITH TRPV4 ACTIVITY, COMPOSITIONS AND ASSOCIATED METHODS THEREOF” (The University of Utah Research Foundation, priority 2012, published 2015)

Legend:
[1] = system: MB model of glaucoma; experiment: IOP time course after single eye drop in MB model of glaucoma; assay type: in vivo, mouse; settings: eye drop
Description: Specifically, microbeads (MBs) were injected into the anterior chamber of a mouse eye as described in Example 2 with PBS-injected eyes used as controls. Compound 1 (10 mg/kg body weight) (or PBS vehicle) was injected intraperitoneally (IP). […] IOP was measured in mice between 10:00 AM and 1:00 PM with the TonoLab rebound tonometer (Colonial Medical Supply, Franconia, NH/Tyolat, Helsinki, Finland). Mice were sedated with IP injection of Avertin with final amount calculated by weight (e.g., 0.5 ml for 21-24 g animals). Animals were placed on a jack stand platform and the tonolab was clamped on a ring stand and centered onto the mid-cornea. During measurements animal were neither restrained nor touched. Each eye was measured twenty consecutive times, the highest and lowest values were discarded and the values were averaged.
FIG. 9 illustrates the short-term effects of a single dose of Compound 1 (eye drop) in the MB model of glaucoma. IOP was measured as described in Example 3 at the indicated time points after receiving a drop of Compound 1. Compound 1 reduced IOP beginning at 1 hour after dosing and continued through 6 hours after dosing.
FIG. 10 illustrates a time course of Compounds 1, 2, 5 and Compound 2-HCl as well as a positive control compound, timolol, with regard to inhibition of IOP. The experiment was conducted as described in Example 9. Each of the TRPV4 antagonists reduced IOP with a similar time course. Specifically, Compounds 1, 2, 5 and Compound 2-HCl reduced IOP for at least 6 hours after dosing.
FIG. 11 illustrates a time course of Compound 2-HCl activity. The experiment was conducted as described in Example 9. […] 2
FIG. 12 illustrates a comparison of the time course of Compound 2-HCl and Compound 5. The experiment was conducted as described in Example 9.

[2] = system: retinal ganglion cells; experiment: TUNEL assay of apoptotic cell death in retinas; assay type: cell-based
Description: Terminal deoxynucleotidyl transferase-mediated dUTP-biotin nick end labeling (TUNEL) is a common method for detecting fragmentation that results from apoptotic signaling cascades. Retinas were embedded, cryosectioned, and processed for the TUNEL assay following the protocol by Gavrieli et al. (1992). After 30 min. rehydration in 70% ethanol, 2×5 min. rinses in PBS and 1% Triton-X in 1% citrate buffer (pH 7.3), the slides were subjected to a final rinse in PBS. Slides were then incubated for 30 min. in the reaction buffer (30 mM Trizma-HCl, 140 mM cacodylate, 1.0 mM CaCl2, 0.2% Triton X-100, pH 7.2). Positive controls were treated with DNAse I (Roche Diagnostics; Branford, Conn.; 10 U/ml) in the reaction buffer. Next, slides were treated for 1 hour with 0.03 units/μl terminal transferase and 4 μM biotin-16-dUTP (Roche Diagnostics). The reaction was terminated in 30 mM Na+ citrate, 300 mM NaCl and 0.2% Triton X-100 in PBS (5 min.) and rinsed in PBS (2×5 min), exposed to 1% bovine serum albumin in PBS for 20 min and rinsed. Apoptotic cells were visualized with a confocal microscope (Zeiss LSM510) and categorized by size. […] This was blocked by RuR and by the TRPV4 antagonist Compound 1.

[3] = molecular target: T1, TRPV4 (Mus musculus, UniProt Q9EPK8); experiment: GSK-evoked [Ca++]i in retinal Müller glial cells; assay type: cell-based; design: endogenous in cells; host or cells: retinal Müller glial cells; settings: retinal Müller glial cells; agonist alone
T1 sequence (Q9EPK8 whole entry): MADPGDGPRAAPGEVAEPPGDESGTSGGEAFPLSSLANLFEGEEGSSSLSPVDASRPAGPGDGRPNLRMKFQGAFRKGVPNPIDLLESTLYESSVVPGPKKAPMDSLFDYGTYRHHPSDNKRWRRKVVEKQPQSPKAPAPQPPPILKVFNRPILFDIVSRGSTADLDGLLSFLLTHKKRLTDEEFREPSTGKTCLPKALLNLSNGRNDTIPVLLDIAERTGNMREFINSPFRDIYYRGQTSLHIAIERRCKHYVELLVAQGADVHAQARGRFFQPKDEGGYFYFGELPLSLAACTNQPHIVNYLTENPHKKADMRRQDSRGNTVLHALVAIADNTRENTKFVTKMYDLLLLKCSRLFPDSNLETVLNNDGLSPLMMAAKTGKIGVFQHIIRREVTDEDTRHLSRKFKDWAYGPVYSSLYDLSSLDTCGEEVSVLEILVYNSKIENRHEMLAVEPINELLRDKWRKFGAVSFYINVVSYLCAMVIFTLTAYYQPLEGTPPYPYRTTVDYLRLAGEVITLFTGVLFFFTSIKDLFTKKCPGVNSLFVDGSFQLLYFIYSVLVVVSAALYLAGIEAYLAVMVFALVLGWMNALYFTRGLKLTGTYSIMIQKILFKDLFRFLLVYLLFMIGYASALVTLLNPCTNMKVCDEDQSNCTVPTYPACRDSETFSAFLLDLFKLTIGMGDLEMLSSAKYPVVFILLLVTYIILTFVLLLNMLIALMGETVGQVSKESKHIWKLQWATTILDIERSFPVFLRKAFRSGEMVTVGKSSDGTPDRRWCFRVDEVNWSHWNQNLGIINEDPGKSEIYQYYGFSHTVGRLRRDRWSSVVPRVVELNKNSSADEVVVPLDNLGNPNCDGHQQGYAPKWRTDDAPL

[4] = molecular target: T2, TRPV4 (Homo sapiens, UniProt Q9HBA0); experiment: Fura-2 calcium imaging of human trabecular meshwork (TM) cells; assay type: cell-based; settings: bath application 100 nM
T2 construct: endogenous in cells; host or cells: primary human trabecular meshwork cells from trabeculectomy tissue
T2 sequence (Q9HBA0 whole entry): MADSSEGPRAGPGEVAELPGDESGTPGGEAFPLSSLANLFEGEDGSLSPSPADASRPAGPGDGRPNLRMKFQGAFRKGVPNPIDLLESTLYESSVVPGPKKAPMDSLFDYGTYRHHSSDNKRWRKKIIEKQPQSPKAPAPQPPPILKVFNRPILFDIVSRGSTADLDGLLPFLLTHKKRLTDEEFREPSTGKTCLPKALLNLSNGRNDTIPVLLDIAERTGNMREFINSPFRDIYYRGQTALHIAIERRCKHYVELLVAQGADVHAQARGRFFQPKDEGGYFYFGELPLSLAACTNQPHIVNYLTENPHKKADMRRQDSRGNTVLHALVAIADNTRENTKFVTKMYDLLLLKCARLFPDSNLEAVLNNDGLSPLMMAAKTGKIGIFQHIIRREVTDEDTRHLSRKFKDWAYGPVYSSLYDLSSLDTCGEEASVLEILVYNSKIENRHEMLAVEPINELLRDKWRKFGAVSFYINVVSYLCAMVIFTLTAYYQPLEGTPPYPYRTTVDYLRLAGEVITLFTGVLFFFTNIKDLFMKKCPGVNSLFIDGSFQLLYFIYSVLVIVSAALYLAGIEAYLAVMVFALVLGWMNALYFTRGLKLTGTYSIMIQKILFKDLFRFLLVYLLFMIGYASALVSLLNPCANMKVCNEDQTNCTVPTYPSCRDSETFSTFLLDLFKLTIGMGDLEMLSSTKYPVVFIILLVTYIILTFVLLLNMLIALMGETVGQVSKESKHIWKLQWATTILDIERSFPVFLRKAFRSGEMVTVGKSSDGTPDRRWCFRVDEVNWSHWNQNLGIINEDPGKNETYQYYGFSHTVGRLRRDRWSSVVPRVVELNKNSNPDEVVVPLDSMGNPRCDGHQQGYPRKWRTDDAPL
Description: Pieces of tissue were isolated from a trabeculectomy. Trabecular meshwork cells (TM) were kept in cold L15 medium and then loaded with Fura-2 (10 μm) for 1 hour. Fibroblast-shaped cells were imaged from a TM chunk (˜500 μm×500 μm) with a 40× water immersion objective. The sampling rate was at 6 second intervals. Krebs Ringer Bicarbonate Recording buffer (7.4, 284 mOsm) was prepared as reported by Anthony et al., 1998, IOVS; Prostaglandin F2α receptors in the human trabecular meshwork.
Calcium imaging was performed on TM cells isolated from human patients. In brief, dissociated human TM cells embedded within the tissue were dissociated and plated on concanavalin A-coated (0.2 mg/ml; Sigma) coverslips, loaded with fura-2 AM ([…]; Invitrogen Life Technologies) for 15 min-1 hour and washed for 10 min in dye-free L-15 medium. […] Fluorescence emission was high-pass filtered at 510 nm and captured with cooled digital CCD cameras (HQ2, Photometrics). […] Fluorescence imaging was performed on regions of interest (ROIs) encompassing the TM cell somata, typically at 3×3 binning. Background fluorescence was measured in similarly sized ROIs in neighboring areas devoid of cells. After sequential image acquisition (0.167-0.5 Hz) of cell fluorescence at 340/380 nm, the background was subtracted. […]

[5] = molecular target: T1, TRPV4; experiment: AGB cation influx into retinal cells (anti-AGB antibody); assay type: cell-based; design: these two cell types express TRPV4 channels in the mouse retina; from tissue; host or cells: mouse retina (retinal ganglion cells and Müller glial cells); settings: mouse retina; agonist alone
Description: FIG. 16 illustrates the effect of the TRPV4 agonist GSK on cation influx into mouse retinal cells of the mouse retina. The influx was determined using the anti-AGB antibody, as described by Marc R E (J Comp Neurol 407(1): 47-64, 1999). AGB is a membrane permeant cation that can flow through most known cation channels. Using an anti-AGB antibody, it can be determined where the cation flux occurs and, therefore, which cells are activated.

[6] = system: retinal ganglion cells; experiment: In vivo intraocular injection of GSK, NeuN+ RGC count; settings: intraocular injection 100-300 nM, retinas after 48 hours
Description: In this experiment, GSK (100-300 nM) was injected intraocularly with a Hamilton syringe. Retinas were isolated after 48 hours, fixed and labeled with the RGC marker antibody NeuN. NeuN-immunopositive somata in the ganglion cell layer, shown in the panel on the right, were counted. The bar graph represents quantification of NeuN^+ cells in the indicated experimental groups.

[7] = system: retinal neurons (RGCs) and glia (Müller cells); experiment: Hypotonic stimuli: cell swelling (change in cell area) and [Ca++]i; assay type: cell-based; settings: hypotonic stimuli, 300 mOsm to 190 mOsm
From the text: FIG. 18A illustrates the effect of hypotonic stimuli on cell swelling as measured by change in cell area. Hypotonic stimuli were generated by replacing extracellular sodium levels to lower osmolarity from 300 mOsm to 190 mOsm.

[8] = system: Müller cells; experiment: Arachidonic acid-induced [Ca2+]i in Müller cells; assay type: cell-based; settings: 10 μM
Description: This response is blocked by Compound 1 (1 μM).

## Cc1c(C(=O)Nc2cccc(C(=O)OC(C)C)c2)cc(-c2ccccc2)n1CCCN1CCOCC1.Cl [Compound 2-HCl, iso-propyl 3-(2-methyl-1-(3-morpholinopropyl)-5-phenyl-1H-pyrrole-3-carboxamido)benzoate hydrochloride]
[1]; after dosing
  time of maximal inhibition of IOP: 6 h

## N.N.N.N.N.N.N.N.N.N.N.N.N.N.[Cl-].[Cl-].[Cl-].[Cl-].[Cl-].[Cl-].[O-2].[O-2].[Ru+3].[Ru+3].[Ru+4] [Ruthenium Red]
[2]; 190 mOsm saline, Compound 1 1 uM, RuR 10 μM
  apoptotic cell death induced by hypotonic swelling (TUNEL): block apoptotic cell death
[2]; GSK 100 nM, Compound 1 1 uM, RuR 10 μM
  apoptotic cell death induced by TRPV4 agonist GSK (TUNEL): block apoptotic cell death

## CC(C)C[C@H](NC(=O)c1cc2ccccc2s1)C(=O)N1CCN(C(=O)[C@H](CO)NS(=O)(=O)c2ccc(Cl)cc2Cl)CC1 [GSK1016790A, reference compound]
[2]; 100 nM, agonist alone
  death of retinal ganglion cells (TUNEL staining): induced death of retinal ganglion cells
[3]
  intracellular calcium concentration [Ca++]i: evokes sustained increases
[4]
  340/380 fluorescence ratio (intracellular calcium [Ca++]i): increased 340/380 fluorescence ratio
[5]
  number of AGB+ cells (cation influx): increased the number of AGB^+ retinal ganglion cells and Müller glial cells
[6]
  number of retinal ganglion cells (NeuN+ somata): substantially reduces the number of retinal ganglion cells

## CC(=O)OCOC(=O)CN(CC(=O)OCOC(C)=O)c1ccccc1OCCOc1ccccc1N(CC(=O)OCOC(C)=O)CC(=O)OCOC(C)=O [BAPTA-AM, reference compound]
[7]
  cell swelling (change in cell area): significantly reduced

## CC(C)(C)NC[C@H](O)COc1nsnc1N1CCOCC1 [timolol, reference compound]
[1]; positive control
  dose-response curve for inhibition of IOP relative to TRPV4 antagonists: left-shifted dose-response curve

## CCCCC/C=C\C/C=C\C/C=C\C/C=C\CCCC(=O)O [arachidonic acid, reference compound]
[8]
  [Ca2+]i response: increase in [Ca2+]i
